Measurements taken from patent publication US20230302022A1, “PREVENTING OR MITIGATING CHEMOTHERAPY INDUCED ALOPECIA USING VITAMIN D” (priority 2016, published 2023).

Assays:
[1] = system: MIAC51 (chloroleukemia cells); assay: Chloroleukemia (MIAC51) in rats: cure / survival under chemotherapy with topical calcitriol; assay type: in vivo, rat; conditions: CTX, after Two Rounds of Chemotherapy
Method: For experiments in which rats were transplanted with chloroleukemia, on Day 5 after birth, rats were randomly divided into three groups of 45 each. All rats received 1×10^5 chloroleukemic cell line MIAC51 (i.p.) in 0.1 mL of serum free (SF) RPMI. MIAC51 were cultured in RPMI 1640 supplemented with L-glutamine and 10% fetal bovine serum at 37° C. in a 5% CO2, 100% humidity incubator. Cells were grown to 50% confluency (1.5×106 mL) collected in 50 mL conical tubes, centrifuged at 600 g×10 min. at room temperature and resuspended in SF-RPMI at a concentration of 1×10^6/mL. Group 1 rats received no further treatment. Group 2 rats received topical vehicle and CTX on day 13. […] Topical applications were performed as described above.
On day 23 after birth, a sample of blood was taken from all rats and differentials performed. Rats with leukemia were sacrificed, rats without leukemia were kept and a second differential performed on day 31, at any point if leukemia was detected, animals were sacrificed by CO2 asphyxiation.
On day 5 after birth all rats received 1×105 MIAC51 intraperitoneally in 0.1 mL of serum free (SF) RPMI. MIAC51 were cultured in RPMI 1640 supplemented with L-glutamine and 10% fetal bovine serum at […] in a 5% CO2, 100% humidity incubator. Cells were grown to 50% confluency (1.5×106 mL) collected in 50 mL conical tubes, centrifuged at 600 g for 10 minutes at room temperature and resuspended in SF-RPMI at a concentration of 1×10^6/mL prior to injection.
[…]

Long Evans rats = assay: CIA in chloroleukemic Long Evans rats receiving multi-course chemotherapy; assay type: in vivo, rat; conditions: for ALOPECIA 4+ (number of rats): Cyclophosphamide (CTX)

O=P1(N(CCCl)CCCl)NCCCO1 (centres unmarked) [CTX, Cyclophosphamide]
Survival Rate, % [1]: 20% | Cured (number of rats) ([1]; of 40): 8 | ALOPECIA 4+ (number of rats) (Long Evans rats; after First Round of Chemotherapy): 40 | ALOPECIA 4+ (number of rats) (Long Evans rats; after Second Round of Chemotherapy): 8 | extent of alopecia (grade), all rats (Long Evans rats; cyclophosphamide regimen, after the first round of chemotherapy): +4
